# In article PMC3207004 (Clinical cancer research : an official journal of the …, 2011):
# What was measured:
# [1] = Plasma pharmacokinetics of PF-04928473 after oral PF-04929113; format: in vivo, human; conditions: patients
# [2] = cited from earlier work
# [3] = tested on: advanced solid tumors and lymphomas; assay: Assessment of response; format: in vivo, human
# [4] = human, in vivo
structure (smiles),measurement,setting,value
CC1(C)CC(=O)c2c(C(F)(F)F)nn(-c3ccc(C(N)=O)c(N[C@H]4CC[C@H](OC(=O)CN)CC4)c3)c2C1 [PF-04929113],Absorption following oral administration,[1],rapidly absorbed
same,Retinal damage in animal studies,"[2]; canine model, reports, no reference given",irreversible retinal damage
same,Retinal toxicity,"[2]; dog, in vivo",evidence of retinal toxicity
same,Median duration of disease stabilization,[3]; 15 patients,16 weeks
same,Objective responses,[3]; 32 evaluable patients,no objective tumor responses
same,Anti-tumor activity as a single-agent,[3]; twice weekly continuous dosing,modest anti-tumor activity
same,"ALT elevation, Grade 1",[4],5 (15) Number of patients (%)
same,"ALT elevation, Grade 2",[4],1 (3) Number of patients (%)
same,"ALT elevation, Grade 3",[4],0 Number of patients (%)
same,"ALT elevation, Grade 4",[4],0 Number of patients (%)
same,"AST elevation, Grade 1",[4],3 (9) Number of patients (%)
same,"AST elevation, Grade 2",[4],2 (6) Number of patients (%)
same,"AST elevation, Grade 3",[4],1 (3) Number of patients (%)
same,"AST elevation, Grade 4",[4],0 Number of patients (%)
same,"Abdominal pain, Grade 1",[4],1 (3) Number of patients (%)
same,"Abdominal pain, Grade 2",[4],0 Number of patients (%)
same,"Abdominal pain, Grade 3",[4],0 Number of patients (%)
same,"Abdominal pain, Grade 4",[4],0 Number of patients (%)
same,"Alkaline phosphatase elevation, Grade 1",[4],0 Number of patients (%)
same,"Alkaline phosphatase elevation, Grade 2",[4],2 (6) Number of patients (%)
same,"Alkaline phosphatase elevation, Grade 3",[4],0 Number of patients (%)
same,"Alkaline phosphatase elevation, Grade 4",[4],0 Number of patients (%)
same,"Anemia, Grade 1",[4],2 (6) Number of patients (%)
same,"Anemia, Grade 2",[4],3 (9) Number of patients (%)
same,"Anemia, Grade 3",[4],0 Number of patients (%)
same,"Anemia, Grade 4",[4],0 Number of patients (%)
same,"Anorexia, Grade 1",[4],2 (6) Number of patients (%)
same,"Anorexia, Grade 2",[4],1 (3) Number of patients (%)
same,"Anorexia, Grade 3",[4],0 Number of patients (%)
same,"Anorexia, Grade 4",[4],0 Number of patients (%)
same,"Arthritis (non-septic), Grade 1",[4],0 Number of patients (%)
same,"Arthritis (non-septic), Grade 2",[4],1 (3) Number of patients (%)
same,"Arthritis (non-septic), Grade 4",[4],0 Number of patients (%)
same,"Constipation, Grade 1",[4],1 (3) Number of patients (%)
same,"Constipation, Grade 2",[4],0 Number of patients (%)
same,"Constipation, Grade 3",[4],0 Number of patients (%)
same,"Constipation, Grade 4",[4],0 Number of patients (%)
same,"Cough, Grade 1",[4],1 (3) Number of patients (%)
same,"Cough, Grade 2",[4],0 Number of patients (%)
same,"Cough, Grade 3",[4],0 Number of patients (%)
same,"Cough, Grade 4",[4],0 Number of patients (%)
same,"Creatinine phosphokinase elevation, Grade 1",[4],1 (3) Number of patients (%)
same,"Creatinine phosphokinase elevation, Grade 2",[4],0 Number of patients (%)
same,"Creatinine phosphokinase elevation, Grade 3",[4],0 Number of patients (%)
same,"Creatinine phosphokinase elevation, Grade 4",[4],0 Number of patients (%)
same,"Diarrhea, Grade 1",[4],4 (12) Number of patients (%)
same,"Diarrhea, Grade 2",[4],0 Number of patients (%)
same,"Diarrhea, Grade 3",[4],3 (9) Number of patients (%)
same,"Diarrhea, Grade 4",[4],0 Number of patients (%)
same,Dose Level at which grade 3 AST elevation occurred,[4],77 mg/m^2
same,Dose Level at which grade 3 Non-septic arthritis occurred,[4],16 mg/m^2
same,Dose Level at which grade 3 Thrombocytopenia occurred,[4],177 mg/m^2
same,"Dysgeusia, Grade 1",[4],1 (3) Number of patients (%)
same,"Dysgeusia, Grade 2",[4],1 (3) Number of patients (%)
same,"Dysgeusia, Grade 3",[4],0 Number of patients (%)
same,"Dysgeusia, Grade 4",[4],0 Number of patients (%)
same,"Dyspepsia, Grade 1",[4],1 (3) Number of patients (%)
same,"Dyspepsia, Grade 2",[4],0 Number of patients (%)
same,"Dyspepsia, Grade 3",[4],0 Number of patients (%)
same,"Dyspepsia, Grade 4",[4],0 Number of patients (%)
same,"Edema, Grade 1",[4],0 Number of patients (%)
same,"Edema, Grade 2",[4],1 (3) Number of patients (%)
same,"Edema, Grade 3",[4],0 Number of patients (%)
same,"Edema, Grade 4",[4],0 Number of patients (%)
same,"Emesis, Grade 1",[4],2 (6) Number of patients (%)
same,"Emesis, Grade 2",[4],1 (3) Number of patients (%)
same,"Emesis, Grade 3",[4],0 Number of patients (%)
same,"Emesis, Grade 4",[4],0 Number of patients (%)
same,"Fatigue, Grade 1",[4],4 (12) Number of patients (%)
